Laboratory results published in US4927855A, “Levorotatory isomer of benzhydrylsulfinyl derivatives” (priority 1986, dated 1990).

Legend:
[1] = Toxicity in male mice, intraperitoneal administration; format: in vivo
Description: (§1) The comparative tests which were undertaken with the levorotatory derivative according to the invention (Ex. 1; Code no.: CRL 40 982), the dextrorotatory derivative (CP1; Code no.: CRL 40 983) and the corresponding racemate (CP2; Code no.: CRL 40 476) have been summarized below. Unless indicated otherwise, the 3 products studied in these tests were administered intraperitoneally as a suspension in an aqueous solution of gum arabic, in a volume of 20 ml/kg to male mice and in a volume of 5 ml/kg to male rats.

[2] = Behavior in male mice (stimulant effects); format: in vivo; details: intraperitoneal
Description: as §1

Behavior in rats = format: in vivo, male rats; details: intraperitoneal; for behavior, reactivities and variations in the rectal temperature and pupil diameter: male rats, 64, 16, 4 and 1 mg/kg; for mydriatic action in male rats: all the doses used
Description: as §1
at a dose of 128 mg/kg, CRL 40 476 causes excitation with an increase in the fear ration for 2 h, exophthalmos for 1 h and mydriasis for 1 for 2 h;
at a dose of 32 mg/kg, CRL 40 476 causes excitation (transient, lasting 0.5 h) with an increase in the fear reaction for 1 h, exophthalmos for 0.5-1 h and mydriasis for 1-2 h;
at a dose of 8 mg/kg, CRL 40 476 causes exophthalmos for 0.5-1 h and mydriasis for 0.5 h;
at a dose of 2 mg/kg, CRL 40 476 induces transient mydriasis appearing 1 h after administration, whereas

[3] = Motor activity in mice (actimeter); format: in vivo, male mice; details: for motor activity: 128 mg/kg and to a lesser extent 64 mg/kg, intraperitoneal four hours before 30 min recording; for intensity of stimulant effect / hyperactivity relative to the other products / level and statistical significance of hyperactivity relative to CRL 40 476: intraperitoneal four hours before the test; for level and statistical significance of hyperactivity relative to CRL 40 476: especially at 128 mg/kg
Description: as §1
The mice (6 per dose, 18 control animals) receive CRL 40 476, CRL 40 982 or CRL 40 983 four hours before being placed in an actimeter, where their motility is recorded for 30 minutes.

[4] = Pharmacokinetic study on dogs (plasma AUC, metabolism to CRL 40 467); format: in vivo; details: for AUCo^+9h of CRL 40 476, comparison between products administered: dogs, oral, 30 mg/kg, plasma, 0-9 h, stereoisomers not distinguished; for conversion to inactive metabolite CRL 40 467: in the organism
Description: to distinguish CRL 40 982 from the racemic and dextrorotatory compounds, a kinetic study of the metabolism was undertaken on dogs (group of four animals). In a randomized crossover procedure, each animal received the following at the rate of one oral administration per week: 2 administrations of CRL 40 476 (for assessment of the variations within individuals), 1 administration of CRL 40 982 and 1 administration of CRL 40 983. Following each of these administrations, the kinetics of the CRL 40 476 and CRL 40 467 present in the plasma were determined (without looking to see whether these two products were in the racemic, levorotatory and/or dextrorotatory form, because of the difficulties associated with determining the optical rotation of each of the optical isomers in a biological medium).
The dose administered for each of the test substances CRL 40 476, CRL 40 982 and CRL 40 983 was 30 mg/kg.
After administration of CRL 40 476, the said CRL 40 476 and its metabolite, CRL 40 467, are found in the plasma.
After the administration of CRL 40 982, the following are found in the plasma: the said CRL 40 982, which will be characterized and determined as being CRL 40 476 by way of convenience, in view of what has been said above, and a metabolite which will be characterized and determined as being CRL 40 467.
Likewise, after administration of CRL 40 983, the 2 corresponding products in the plasma will be characterized and determined as being CRL 40 476 and CRL 40 467.
The curves of the plasma concentrations of the said CRL 40 476 and CRL 40 467 as a function of time are plotted from time […] to time T=+9 h after administration of the CRL 40 476, CRL 40 982 and CRL 40 983. The areas under the curves (AUCo^+9h) are then calculated.

[5] = Immunostimulant effect in vitro
Human clinical trials = format: in vivo
Solubility of CRL 40 982 = details: alcohols, acetone, water, ether
[6] = Activity and lethality of the metabolite CRL 40 467 in male mice; format: in vivo
[7] = human, once or twice a day, tablets or gelatin capsules of 50 to 100 mg
[8] = male mice, intraperitoneal, 1024, 512, 256, 128 and 64 mg/kg

Row | SMILES | stimulant effects in male mice [2] | behavior, reactivities and variations in the rectal temperature and pupil diameter (Behavior in rats) | stimulant effects in male rats (Behavior in rats; male rats) | mydriatic action in male rats (Behavior in rats; male rats) | motor activity [3] | intensity of stimulant effect / hyperactivity relative to the other products [3] | level and statistical significance of hyperactivity relative to CRL 40 476 [3] | AUCo^+9h of CRL 40 476, comparison between products administered [4] | conversion to inactive metabolite CRL 40 467 [4] | LDO (maximum non-lethal dose) [1] | other results
1 | NC(=O)C[S+]([O-])C(c1ccccc1)c1ccccc1 (single isomer, unassigned; (-)) [CRL 40 982, (-)-benzhydrylsulfinylacetamide] | have stimulant effects | substantially comparable to those of the control group | do not have stimulant effects | devoid of this mydriatic action | increase in the motor activity | stimulant effect equal in intensity to that observed with CRL 40 983 | greater than those due to CRL 40 476 | approximately twice | only a small proportion of this product is converted to inactive CRL 40 467 |  | LD30 [1]: about 512 mg/kg; relative toxicity [1]: more toxic than CRL 40 983 (CP1) and CRL 40 476 (CP2); bioavailability ([4]; relative to racemic CRL 40 476 and dextrorotatory CRL 40 983): better bioavailability than the racemic compound CRL 40 476 and the dextrorotatory compound CRL 40 983; immunostimulant effect [5]: immunostimulant effect was also observed; long-term clinical action (Human clinical trials; human, long term): arousing substance useful for hypersomnia; improvement in Alzheimer's disease (Human clinical trials; [7]): improvement of the symptoms of dementia, memory disorders, aphasia and ideomotor apraxia; stimulant neuropsychopharmacological profile (Human clinical trials; [7]): different stimulant neuropsychopharmacological profile from that of the amphetamines and tricyclic antidepressants; activity towards symptoms of dementia and loss of memory (Human clinical trials; human, short and long term, especially in the elderly): particularly active towards the symptoms of dementia and loss of memory; short-term clinical action (Human clinical trials; human, short term): purely hypnogenic, antiarousing substance; half-life (Human clinical trials; in vivo, human clinical trials, read-out: elimination half-life (converted)): ~10 h; solubility (Solubility of CRL 40 982): soluble in alcohols and acetone and insoluble in water and ether
2 | O=C(O)C[S+]([O-])C(c1ccccc1)c1ccccc1 (racemic) [CRL 40 467, (±)-benzhydrylsulfinylacetic acid] |  |  |  |  |  |  |  |  |  |  | activity of metabolite ([6]; male mice, intraperitoneal, 64-1024 mg/kg): inactive; death of animals treated [6, 8]: does not cause the death of any of the animals treated; duration of brief sedation [6, 8]: 50 to 60 min; psychotropic activity ([6]; neuropsychopharmacological study): did not reveal any psychotropic activity
3 | NC(=O)C[S+]([O-])C(c1ccccc1)c1ccccc1 (single isomer, unassigned; (+)) [CRL 40 983, (+)-benzhydrylsulfinylacetamide] | have stimulant effects | substantially comparable to those of the control group | do not have stimulant effects | devoid of this mydriatic action | increase in the motor activity |  | greater than those due to CRL 40 476 | not statistically different |  | greater than or equal to 512 mg/kg | conversion to inactive metabolite CRL 40 467 ([4]; listed as dextrorotatory derivative): a very high proportion
4 | NC(=O)C[S+]([O-])C(c1ccccc1)c1ccccc1 (racemic) [CRL 40 476, (±)-benzhydrylsulfinylacetamide] | have stimulant effects |  | is a stimulant | has a mydriatic action at all the doses used | increase in the motor activity | less than that obtained with either CRL 40 982 or CRL 40 983 |  | not statistically different | partially converted to (±)-benzhydrylsulfinylacetic acid | greater than or equal to 512 mg/kg | transient mydriasis, time of appearance after administration (Behavior in rats; male rats, 2 mg/kg): 1 h; exophthalmos, duration (Behavior in rats; male rats, 8 mg/kg): 0.5 to 1 h; mydriasis, duration (Behavior in rats; male rats, 8 mg/kg): 0.5 h; excitation (transient), duration (Behavior in rats; male rats, 32 mg/kg): 0.5 h; exophthalmos, duration (Behavior in rats; male rats, 32 mg/kg): 0.5 to 1 h; increase in the fear reaction, duration (Behavior in rats; male rats, 32 mg/kg): 1 h; mydriasis, duration (Behavior in rats; male rats, 32 mg/kg): 1 to 2 h; excitation with increase in the fear reaction, duration (Behavior in rats; male rats, 128 mg/kg): 2 h; exophthalmos, duration (Behavior in rats; male rats, 128 mg/kg): 1 h
